Measurements published in ChEMBL document CHEMBL1201862, “PubChem BioAssay data set” (2004).
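Method: 48-hour compound exposure of cells in 96-well plates, five concentrations, linear interpolation of endpoints. GI50 = concentration required for 50% inhibition of growth.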 Active and inactive are the calls of the source. No stated cut-off is given here; in the data, active = GI50 up to about 1.1 µM and inactive = higher.

Tests used:
Assay in all cases: NCI anticancer screen, dose series, 48 h
[1] = test system: DU-145
[2] = test system: SF-295
[3] = test system: OVCAR-3
[4] = test system: SF-539
[5] = test system: MDA-N
[6] = test system: SK-MEL-5
[7] = test system: COLO 205
[8] = test system: SW-620
[9] = test system: SK-OV-3
[10] = test system: KM12
[11] = test system: HT-29
[12] = test system: U-251
[13] = test system: NCI-H226
[14] = test system: BT-549
[15] = test system: SK-MEL-2
[16] = test system: SF-268
[17] = test system: EKVX
[18] = test system: MCF7
[19] = test system: SR
[20] = test system: RXF 393

Measured: GI50

CN(CC(=O)N1CC(CCl)c2ccc([N+](=O)[O-])cc21)CC(=O)N1CC(CCl)c2ccc([N+](=O)[O-])cc21 (stereo unspecified)
inactive: [1] > 100 µM | [2] > 100 µM | [3] 74.1 µM | [4] > 100 µM | [5] > 100 µM | [6] 98.9 µM | [7] > 100 µM | [8] > 100 µM | [9] > 100 µM | [10] > 100 µM | [11] > 100 µM | [12] > 100 µM | [13] > 100 µM | [14] > 100 µM | [15] 97.9 µM | [16] > 100 µM | [17] > 100 µM | [18] > 100 µM

CCOC(=O)c1c(-c2ccccc2)c(-c2ccccc2)cn1C
inactive: [1] 8.95 µM | [2] > 10 µM | [3] > 10 µM | [4] > 10 µM | [5] > 10 µM | [9] > 10 µM | [10] > 10 µM | [11] 8.67 µM | [12] > 10 µM | [19] 3.51 µM | [13] > 10 µM | [14] > 10 µM | [15] 8.15 µM | [20] 3.93 µM | [16] > 10 µM | [17] > 10 µM

CN(C)CCN1C(=O)c2ccccc2C1(O)c1ccc(Cl)cc1 (stereo unspecified)
inactive: [1] > 100 µM | [2] > 100 µM | [3] > 100 µM | [5] 79.4 µM | [6] 24 µM | [7] > 100 µM | [8] > 100 µM | [9] > 100 µM | [10] 69.5 µM | [11] 42.7 µM | [12] 99.1 µM | [13] 66.7 µM | [14] > 100 µM | [20] 15.7 µM | [16] > 100 µM | [17] > 100 µM | [18] > 100 µM

CCOC(=O)NNC(=O)NCCCCNC(=O)NNC(=O)OCC
inactive: [1] > 100 µM | [2] > 100 µM | [3] > 100 µM | [4] > 100 µM | [5] > 100 µM | [6] > 100 µM | [7] > 100 µM | [8] > 100 µM | [9] > 100 µM | [10] 98.2 µM | [11] > 100 µM | [12] > 100 µM | [13] > 100 µM | [14] > 100 µM | [15] > 100 µM | [20] > 100 µM | [17] > 100 µM

Cn1c(=O)c2c(no[n+]2[O-])n(C)c1=O
inactive: [2] 52.4 µM | [3] > 100 µM | [4] 63.2 µM | [5] 22.4 µM | [6] 42.6 µM | [7] 23 µM | [8] 25.4 µM | [9] 53.5 µM | [10] 52 µM | [11] 31.2 µM | [12] 22.6 µM | [19] > 100 µM | [13] 18.2 µM | [14] 21.7 µM | [15] 45 µM | [20] 27.7 µM | [16] 25.6 µM | [17] 28.4 µM | [18] > 100 µM

Oc1cccc(-c2ccc3c4c2O[C@H]2c5[nH]c6ccccc6c5C[C@@]5(O)[C@@H](C3)N(CC3CC3)CC[C@]425)c1
inactive: [1] 1.87 µM | [2] 1.82 µM | [3] 2 µM | [4] 1.68 µM | [5] 1.67 µM | [6] 3.48 µM | [7] 2.44 µM | [8] 1.88 µM | [10] 1.98 µM | [11] 1.7 µM | [13] 3.75 µM | [14] 10 µM | [15] 2.46 µM | [20] 1.35 µM | [16] 1.68 µM | [17] 13.5 µM

CCCCn1c(-c2ccc([N+](=O)[O-])cc2)cs/c1=N/N=C1\C(=O)Nc2ccc(Br)cc21
inactive: [1] 13.8 µM | [2] 22.9 µM | [3] 15.5 µM | [4] 14 µM | [5] 16.2 µM | [6] 14.1 µM | [7] 13.6 µM | [8] 39.6 µM | [9] 19.5 µM | [10] 14.6 µM | [11] 13.3 µM | [12] 10.4 µM | [13] 21.1 µM | [14] 22.6 µM | [20] 8 µM | [16] 29.9 µM | [17] 24.7 µM | [18] 3.28 µM

ClC1=NN=C(c2c[nH]c3ccccc23)CC1NCc1ccccc1 (stereo unspecified)
inactive: [1] > 100 µM | [2] > 100 µM | [3] > 100 µM | [4] > 100 µM | [5] > 100 µM | [6] > 100 µM | [7] > 100 µM | [8] > 100 µM | [9] > 100 µM | [10] > 100 µM | [11] > 100 µM | [12] > 100 µM | [13] > 100 µM | [14] > 100 µM | [15] > 100 µM | [20] > 100 µM | [16] > 100 µM | [17] > 100 µM

CS(=O)(=O)c1nc(-c2cc3c(c(S(C)(=O)=O)n2)CCC3)cc2c1CCCCC2
inactive: [1] > 100 µM | [2] 31.7 µM | [3] > 100 µM | [5] > 100 µM | [6] > 100 µM | [7] > 100 µM | [8] > 100 µM | [9] 11.9 µM | [10] > 100 µM | [11] > 100 µM | [12] 41.9 µM | [13] 56.6 µM | [14] 20.5 µM | [15] 24.8 µM | [20] 18.5 µM | [16] 14.8 µM | [17] > 100 µM

Cc1ccc(OCC2OC(C#N)C(Oc3ccc(C)cc3)C2Oc2ccc(C)cc2)cc1 (stereo unspecified)
inactive: [1] > 100 µM | [2] > 100 µM | [3] > 100 µM | [4] > 100 µM | [6] > 100 µM | [7] > 100 µM | [8] > 100 µM | [9] > 100 µM | [10] > 100 µM | [11] > 100 µM | [12] > 100 µM | [19] > 100 µM | [13] > 100 µM | [14] > 100 µM | [15] 51.8 µM | [20] > 100 µM | [16] > 100 µM | [17] > 100 µM | [18] > 100 µM

C[N+]1(CCCC[N+]2(C)CCCCCCC2)CCCCCCC1
inactive: [1] > 100 µM | [2] > 100 µM | [3] > 100 µM | [5] > 100 µM | [6] > 100 µM | [8] > 100 µM | [10] > 100 µM | [11] > 100 µM | [12] > 100 µM | [19] > 100 µM | [13] > 100 µM | [14] > 100 µM | [15] > 100 µM | [20] > 100 µM | [16] > 100 µM | [17] > 100 µM
